“Also recorded” adds a separate entry of the source. Like-named read-outs stand apart in the source and are kept apart here.
Key:
[1] = tested on: Colo 205 doxorubicin-sensitive colon adenocarcinoma cells; assay: MTT assay for cytotoxic effect, Colo 205; format: cell-based, human; settings: 24 h incubation, triplicate, read-out: Colo205 (IC50 μM) mean
Description: (§1) The human colon adenocarcinoma cell lines, the Colo 205 (ATCC-CCL-222) doxorubicin-sensitive parent and Colo 320/MDR-LRP (ATCC-CCL-220.1) resistant to anticancer agents expressing ABCB1, were purchased from LGC Promochem (Teddington, UK). […] The cell lines were incubated in a humidified atmosphere (5% CO2, 95% air) at 37 °C. The effects of increasing concentrations of the compounds on cell growth were tested in 96-well flat-bottomed microtiter plates. The 2-fold serial dilutions of the tested compounds were made starting with 100 μM. Then, 10^4 human colonic adenocarcinoma cells in 100 μL of the medium (RPMI-1640) were added to each well, except for the medium control wells. The adherent human embryonic lung fibroblast cell line (10^4/well) was seeded in EMEM medium in 96-well flat-bottomed microtiter plates for 4 h before the assay. The serial dilutions of the compounds were made in a separate plate starting with 100 μM and then transferred to the plates containing the adherent corresponding cell line. Culture plates were incubated at 37 °C for 24 h; at the end of the incubation period, 20 μL of MTT (thiazolyl blue tetrazolium bromide) solution (from a 5 mg/mL stock solution) was added to each well. After incubation at 37 °C for 4 h, 100 μL of sodium dodecyl sulfate (SDS) solution (10% SDS in 0.01 M HCl) was added to each well, and the plates were further incubated at 37 °C overnight. Cell growth was determined by measuring the optical density (OD) at 540 nm (ref 630 nm) with a Multiscan EX ELISA reader (Thermo Labsystems, Cheshire, WA, USA). […] IC50 values and the SD of triplicate experiments were calculated by using GraphPad Prism software version 5.00 for Windows with nonlinear regression curve fit (GraphPad Software, San Diego, CA, USA; www.graphpad.com).

[2] = target: P-glycoprotein (ABCB1) in MDR Colo 320 cells (Homo sapiens, UniProt P08183); assay: Rhodamine 123 accumulation assay (P-gp efflux pump inhibition); format: cell-based
Chain of P-glycoprotein (ABCB1) in MDR Colo 320 cells (P08183 whole entry): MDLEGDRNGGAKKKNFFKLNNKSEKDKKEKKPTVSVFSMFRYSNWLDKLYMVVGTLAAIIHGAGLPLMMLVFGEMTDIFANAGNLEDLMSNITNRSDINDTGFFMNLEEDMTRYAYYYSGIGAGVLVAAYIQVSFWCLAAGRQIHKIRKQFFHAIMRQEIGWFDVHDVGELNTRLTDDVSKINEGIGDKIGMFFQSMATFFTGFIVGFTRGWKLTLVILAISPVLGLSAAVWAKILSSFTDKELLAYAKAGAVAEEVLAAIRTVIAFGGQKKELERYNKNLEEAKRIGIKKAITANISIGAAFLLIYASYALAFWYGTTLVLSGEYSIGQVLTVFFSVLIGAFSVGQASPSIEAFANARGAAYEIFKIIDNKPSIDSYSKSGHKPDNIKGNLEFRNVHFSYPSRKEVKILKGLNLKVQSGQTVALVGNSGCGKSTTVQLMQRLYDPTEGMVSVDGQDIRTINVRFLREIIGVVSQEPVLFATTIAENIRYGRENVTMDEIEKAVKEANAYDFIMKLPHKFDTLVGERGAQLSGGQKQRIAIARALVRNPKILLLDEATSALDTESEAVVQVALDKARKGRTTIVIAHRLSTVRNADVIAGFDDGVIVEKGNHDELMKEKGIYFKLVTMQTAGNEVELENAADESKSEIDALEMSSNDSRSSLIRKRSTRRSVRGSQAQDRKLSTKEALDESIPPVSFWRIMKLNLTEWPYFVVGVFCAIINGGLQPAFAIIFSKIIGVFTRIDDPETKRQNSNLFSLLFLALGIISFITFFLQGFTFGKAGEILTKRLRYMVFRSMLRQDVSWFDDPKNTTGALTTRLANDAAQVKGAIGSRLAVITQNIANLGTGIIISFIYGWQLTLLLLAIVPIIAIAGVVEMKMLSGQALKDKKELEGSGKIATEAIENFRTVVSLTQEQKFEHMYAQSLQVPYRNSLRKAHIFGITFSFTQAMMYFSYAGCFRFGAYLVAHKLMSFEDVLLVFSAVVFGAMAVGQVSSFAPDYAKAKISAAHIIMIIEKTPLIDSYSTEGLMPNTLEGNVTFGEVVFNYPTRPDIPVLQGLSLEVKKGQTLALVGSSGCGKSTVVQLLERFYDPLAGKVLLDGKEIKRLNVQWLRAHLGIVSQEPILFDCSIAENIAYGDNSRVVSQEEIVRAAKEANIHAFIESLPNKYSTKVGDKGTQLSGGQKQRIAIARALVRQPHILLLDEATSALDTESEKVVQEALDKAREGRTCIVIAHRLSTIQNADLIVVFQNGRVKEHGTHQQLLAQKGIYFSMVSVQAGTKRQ
Description: The inhibitory activities of compounds 1–3, 5, and 6 on efflux function were evaluated by measuring the intracellular accumulation of rhodamine 123, a well-known P-glycoprotein substrate fluorescent dye, within the Colo320 MDR cells. Tariquidar, a strong P-gp inhibitor, was used as positive control. All tested compounds were dissolved in DMSO, and the final concentration (2.00%) of the solvent was investigated for any effect on the retention of rhodamine 123. […] The cell numbers of the human colon adenocarcinoma cell lines were adjusted to 2 × 10^6 cells/mL, resuspended in serum-free RPMI 1640 medium, and distributed in 0.5 mL aliquots into Eppendorf centrifuge tubes. […] DMSO at 2% v/v was used as solvent control. Next, 10 μL (5.2 μM final concentration) of the fluorochrome and ABCB1 substrate rhodamine 123 (Sigma) were added to the samples, and the cells were incubated for a further 20 min at 37 °C, washed twice, and resuspended in 1 mL of PBS for analysis. The fluorescence of the cell population was measured with a PartecCyFlow flow cytometer (Partec, Münster, Germany). The FAR was calculated as the quotient between FL-1 of the treated/untreated resistant Colo 320 cell line over the treated/untreated sensitive Colo 205 cell line according to the following equation: [drawing 2]

[3] = tested on: Colo 320/MDR-LRP resistant colon adenocarcinoma cells; assay: MTT assay for cytotoxic effect, Colo 320; format: cell-based, human; settings: 24 h incubation, triplicate, read-out: Colo320 (IC50 μM) mean
Description: as §1

[4] = MTT assay for cytotoxic effect, MRC-5; format: cell-based, human; settings: human
Description: as §1

[5] = tested on: Colo 320 colon adenocarcinoma cell line; assay: Checkerboard combination assay with doxorubicin; format: cell-based, human; settings: for interaction (type of interaction with doxorubicin): Colo 320, based on combination indices; for CI at ED50 (combination index value at the 50% growth inhibition dose): with doxorubicin, Colo 320, 72 h, at best ratio
Description: A checkerboard microplate combination assay was performed, which is a widely used in vitro method for the assessment of drug interactions. […] The assay was carried out on the Colo 320 colon adenocarcinoma cell line. The final concentration of the compounds and doxorubicin used in the combination experiment was chosen in accordance with their cytotoxicity toward this cell line. The dilutions of doxorubicin were made in a horizontal direction in 100 μL, and the dilutions of the compounds vertically in the microtiter plate in a 50 μL volume. Then, 6 × 10^3 of Colo 320 cells in 50 μL of the medium were added to each well, except for the medium control wells. The plates were incubated for 72 h at 37 °C in a 5% CO2 atmosphere. The cell growth rate was determined after MTT staining. At the end of the incubation period, 20 μL of MTT solution (from a stock solution of 5 mg/mL) was added to each well. After incubation at 37 °C for 4 h, 100 μL of SDS solution (10% in 0.01 M HCI) was added to each well, and the plates were further incubated at 37 °C overnight. OD was measured at 540 nm (ref 630 nm) with a Multiscan EX ELISA reader.

[6] = tested on: MRC-5 embryonic lung fibroblast cell line; assay: MTT assay for cytotoxic effect, MRC-5; format: cell-based, human; settings: MTT, 24 h incubation, triplicate
Description: as §1

[7] = tested on: resistant (Colo 320) human colon adenocarcinoma cells; set-up: method as in PMID 33809760; settings: resistant Colo 320 cells; cited from earlier work
[8] = tested on: sensitive (Colo 205) human colon adenocarcinoma cells; set-up: method as in PMID 33809760; settings: sensitive Colo 205 cells; cited from earlier work
[9] = tested on: panel of 71 human cancer cells from 15 tumor types; set-up: method as in PMID 29931585; settings: against 27 cell lines of a panel of 71 human cancer cells; read-out: cytotoxicity IC50; cited from earlier work
[10] = MRC-5 embryonic lung fibroblast cells, MTT, 24 h incubation, triplicate, read-out: MRC-5 (IC50 μM) mean

| Compound | IC50 ([1]; Homo sapiens, COLO 205, 24 h) | FAR (fluorescence activity ratio) ([2]; human, 20 min, 20 μM) | FL-1 ([2]; human, 20 min, 20 μM) | Peak Ch ([2]; human, 20 min, 20 μM) | IC50 ([3]; Homo sapiens, COLO 320, 24 h) | IC50 at 24 h ([4]; MRC-5 (IC50 μM) mean) | IC50 [1] | IC50 [3] | interaction (type of interaction with doxorubicin) [5] | CI at ED50 (combination index value at the 50% growth inhibition dose) [5] | further results |
| --- | --- | --- | --- | --- | --- | --- | --- | --- | --- | --- | --- |
| CC(=O)O[C@H]1[C@H](OC(=O)C[C@](C)(O)CC(=O)O)C[C@]2(C)C3=C(C(=O)C[C@H]2C1(C)C)[C@]1(C)CC[C@H]([C@H](C)CCC(=O)C(C)(C)O)[C@@]1(C)CC3 [compound 1, pholiol A] | > 100 µM | 3.418 | 39.600 | 42.200 | > 100 µM | > 100 µM | – | – | – | – | – |
| COC(=O)C[C@@](C)(O)CC(=O)O[C@@H]1C[C@]2(C)C3=C(C(=O)C[C@H]2C(C)(C)[C@H]1OC(C)=O)[C@]1(C)CC[C@H]([C@H](C)CCC(=O)C(C)(C)O)[C@@]1(C)CC3 [compound 2, pholiol B] | – | 6.880 | 79.700 | 77.700 | – | – | > 25 µM | > 25 µM | synergistic | 0.348 | IC50 ([1]; listed as Pholiol B (2)): 67.9 µM; IC50 ([3]; listed as Pholiol B (2)): 61.5 µM; interaction (type of interaction with doxorubicin) ([5]; listed as pholiol B (2)): synergism |
| CC(=O)O[C@H]1[C@H](OC(=O)C[C@](C)(O)CC(=O)O)C[C@]2(C)C3=C(CC[C@H]2C1(C)C)[C@]1(C)CC[C@H]([C@H](C)CCC(=O)C(C)(C)O)[C@@]1(C)[C@H](O)C3 [compound 3, pholiol C] | > 100 µM | 0.967 | 11.200 | 18.400 | > 100 µM | > 100 µM | – | – | – | – | – |
| COC(=O)C[C@@](C)(O)CC(=O)O[C@@H]1C[C@]2(C)C3=C(CC[C@H]2C(C)(C)[C@H]1OC(C)=O)[C@]1(C)CC[C@H]([C@H](C)CCC(=O)C(C)(C)O)[C@@]1(C)[C@H](O)C3 [compound 4, pholiol D] | – | – | – | – | 48.9 µM | – | > 25 µM | > 25 µM | synergistic | 0.660 | IC50 ([1]; listed as Pholiol D (4)): 51.4 µM; interaction (type of interaction with doxorubicin) ([5]; listed as pholiol D (4)): Synergism |
| C/C(=C\CC/C=C(\C)CC/C=C(\C)CC[C@H](O)C(C)(C)O)CC/C=C(\C)CC[C@H](O)C(C)(C)O [compound 5, (3S,6E,10E,14E,18E,22S)-2,3,22,23-tetrahydroxy-2,6,10,15,19,23-hexamethyl-6,10,14,18-tetracosatetraene] | 26.7 µM | – | – | – | 27.5 µM | – | > 25 µM | > 25 µM | very strong synergistic; also recorded: synergistic | 0.082 | FAR (fluorescence activity ratio) ([2]; conc. 20 μM, rhodamine 123, Colo 320 vs Colo 205): 6.638; P-gp MDR efflux pump inhibitory activity (in words) ([2]; resistant Colo320 cells, rhodamine 123 accumulation): inhibition of P-gp MDR efflux pump activity; also recorded: capacity to inhibit the efflux-pump; also recorded: moderate P-gp inhibitory activity; interaction (type of interaction with doxorubicin) ([5]; listed as compound 5): very strong synergism; IC50 at 24 h [4, 10]: 29.1 µM; IC50 [6]: > 25 µM |
| CC(C)[C@@H](C)/C=C/[C@@H](C)[C@H]1CC[C@H]2C3=CC=C4C[C@@H](O)CC[C@]4(C)[C@H]3CC[C@]12C [compound 6, ergosterol] | – | – | – | – | – | 0.5 µM | – | – | – | – | interaction (type of interaction with doxorubicin) ([5]; listed as ergosterol (6)): additive effect; also recorded: nearly additive |
| COc1cccc2c1C(=O)c1c(O)c3c(c(O)c1C2=O)C[C@@](O)(C(=O)CO)C[C@@H]3O[C@H]1C[C@H](N)[C@H](O)[C@H](C)O1 [doxorubicin, reference compound] | – | – | – | – | – | – | 2.5 µM | 7.4 µM | – | – | IC50 at 24 h [4, 10]: > 20 µM |
| CC(C)[C@@H](C)C=C[C@@H](C)[C@H]1CC[C@H]2C3=CCC4CC(=O)CC[C@]4(C)[C@H]3CC[C@]12C (stereo partly shown) [ergosta-7,22-diene-3-one] | – | – | – | – | – | – | – | – | – | – | IC50 [7]: 8.4 ± 1.1 µM; IC50 [8]: 11.6 ± 1.7 µM |
| CC(C)=CCC[C@@H](C)[C@@H]1CC[C@]2(C)C3=C(CC[C@@]12C)[C@@]1(C)CC[C@H](O)C(C)(C)[C@@H]1CC3 [euphol] | – | – | – | – | – | – | – | – | – | – | IC50 [9]: < 10 µM |
| COc1cc2c(cc1OC)CN(CCc1ccc(NC(=O)c3cc(OC)c(OC)cc3NC(=O)c3cnc4ccccc4c3)cc1)CC2 [tariquidar, reference compound] | – | – | – | – | – | – | – | – | – | – | FAR (fluorescence activity ratio) ([2]; conc. 0.2 μM, positive control, rhodamine 123): 5.533 |

Reference: article PMC9040055, “Triterpenes from Pholiota populnea as Cytotoxic Agents and Chemosensitizers to Overcome Multidrug Resistance of Cancer Cells” (Journal of Natural Products, 2022)
